The values below are quoted from earlier work in patent US20240052003A1, “COMPOSITIONS COMPRISING PEDF-DERIVED SHORT PEPTIDES (PDSP) AND USES THEREOF” (BRIM Biotechnology, Inc., priority 2019, published 2024).

This series has as its system eye. The conditions noted are these: ocular application.

With `NC(=O)c1cccnc1` [nicotinamide], the Eye irritation entry is recorded as “may cause eye irritation”.
